Reference: paper PMC7395850 (Biochemical and biophysical research communications, 2019)

What was measured:
Type in all cases: biochemical
C-EH in human sEH = target: T1, C-EH in human sEH (Homo sapiens, UniProt P34913); assay: C-EH activity assay with PHOME substrate, human sEH; conditions: for time-dependent change in C-EH inhibition, human sEH: preincubation 1.7, 10, 30 and 120 min; for IC50: read-out: IC50 for C-EH in human sEH, human sEH, PHOME substrate
T1 sequence (P34913 1-555): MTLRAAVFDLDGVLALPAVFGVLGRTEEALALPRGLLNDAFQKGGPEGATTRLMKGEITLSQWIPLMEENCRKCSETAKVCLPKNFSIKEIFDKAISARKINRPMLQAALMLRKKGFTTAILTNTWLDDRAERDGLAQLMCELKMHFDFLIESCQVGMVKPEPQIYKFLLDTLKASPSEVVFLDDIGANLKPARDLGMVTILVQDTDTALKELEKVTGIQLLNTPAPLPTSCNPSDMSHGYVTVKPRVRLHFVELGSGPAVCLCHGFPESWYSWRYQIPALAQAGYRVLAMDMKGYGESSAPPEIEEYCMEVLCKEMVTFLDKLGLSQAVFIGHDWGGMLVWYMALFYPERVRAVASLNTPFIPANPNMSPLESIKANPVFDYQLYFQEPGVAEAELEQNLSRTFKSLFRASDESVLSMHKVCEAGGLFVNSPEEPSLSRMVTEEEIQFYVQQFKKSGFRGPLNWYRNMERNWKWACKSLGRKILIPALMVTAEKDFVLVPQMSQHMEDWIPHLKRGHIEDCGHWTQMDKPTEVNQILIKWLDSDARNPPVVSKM

N-phos in human sEH = target: T2, N-phos in human sEH (Homo sapiens, UniProt P34913); assay: N-phos activity assay with AttoPhos substrate, human sEH; conditions: for selectivity index (N-phos over C-EH) in human sEH: IC50 C-EH / IC50 N-phos; for inhibition of human N-phos: inhibitor at 30 μM; for inhibition of human N-phos, in words: screening, 30 μM; for species preference of N-phos inhibition (human versus mouse), in words: human at 30 μM versus mouse at 6 μM (Figure 1B); for Ki: read-out: KI for human N-phos, competitive with respect to AttoPhos; for inhibition mechanism, human N-phos: with respect to the substrate AttoPhos
T2 sequence (P34913 1-555): T1 sequence (P34913 1-555)

N-phos in mouse sEH = target: T3, N-phos in mouse sEH (Mus musculus, UniProt P34914); assay: N-phos activity assay with AttoPhos substrate, mouse sEH; conditions: for inhibition of mouse N-phos: inhibitor at 6 μM; for species preference of N-phos inhibition (mouse versus human), in words: mouse at 6 μM versus human at 30 μM (Figure 1D); for inhibition of mouse N-phos, in words: screening, 6 μM; for selectivity index (N-phos over C-EH) in mouse sEH: IC50 C-EH / IC50 N-phos; for Ki: read-out: KI for mouse N-phos, competitive with respect to AttoPhos; for inhibition mechanism, mouse N-phos: with respect to the substrate AttoPhos
T3 sequence (P34914 1-554): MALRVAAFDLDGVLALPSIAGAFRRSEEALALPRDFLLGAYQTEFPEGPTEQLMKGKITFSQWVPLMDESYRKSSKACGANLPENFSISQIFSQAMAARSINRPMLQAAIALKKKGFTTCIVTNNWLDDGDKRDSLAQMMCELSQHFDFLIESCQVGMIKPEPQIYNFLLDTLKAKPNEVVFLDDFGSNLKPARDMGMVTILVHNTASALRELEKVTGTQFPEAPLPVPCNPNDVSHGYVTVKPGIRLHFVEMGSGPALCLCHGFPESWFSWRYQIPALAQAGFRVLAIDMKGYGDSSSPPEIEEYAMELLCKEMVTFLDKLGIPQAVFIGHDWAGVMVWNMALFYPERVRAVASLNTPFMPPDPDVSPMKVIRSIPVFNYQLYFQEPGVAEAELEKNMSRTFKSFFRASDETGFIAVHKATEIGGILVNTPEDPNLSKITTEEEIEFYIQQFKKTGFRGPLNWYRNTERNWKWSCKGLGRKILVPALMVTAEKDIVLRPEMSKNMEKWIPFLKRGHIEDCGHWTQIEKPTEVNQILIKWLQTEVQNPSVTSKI

C-EH in mouse sEH = target: T4, C-EH in mouse sEH (Mus musculus, UniProt P34914); assay: C-EH activity assay with PHOME substrate, mouse sEH; conditions: for time-dependent change in C-EH inhibition, mouse sEH: preincubation time-window 1.7−120 min; for IC50: read-out: IC50 for C-EH in mouse sEH, mouse sEH, PHOME substrate
T4 sequence (P34914 1-554): T3 sequence (P34914 1-554)

SMILES | IC50 (C-EH in human sEH) | inhibition of human N-phos (N-phos in human sEH) | inhibition of mouse N-phos (N-phos in mouse sEH) | inhibition of mouse N-phos, in words (N-phos in mouse sEH) | inhibition of human N-phos, in words (N-phos in human sEH) | IC50 (C-EH in mouse sEH) | Ki (N-phos in mouse sEH) | inhibition mechanism, mouse N-phos (N-phos in mouse sEH) | Ki (N-phos in human sEH) | inhibition mechanism, human N-phos (N-phos in human sEH) | selectivity index (N-phos over C-EH) in human sEH (N-phos in human sEH) | other results
CC(C)(C)OC(=O)n1cc(C[C@@H](NC(=O)OCC2c3ccccc3-c3ccccc32)C(=O)O)c2ccccc21 [Compound 96, Fmoc-D-Trp(Boc)] | – | > 72% | > 75% | inhibitory | inhibitory | – | – | – | – | – | – | –
CC(C)(C)OC(=O)N[C@H](Cc1ccc(OC(=O)OCc2ccccc2Br)cc1)C(=O)O [Compound 30, Boc-D-Tyr(2-Br-Z)] | – | > 72% | – | – | – | – | – | – | – | – | – | species preference of N-phos inhibition (human versus mouse), in words (N-phos in human sEH): more potent on inhibiting the human N-phos than the mouse enzyme
CC(C)(C)OC(=O)N[C@@H](Cc1ccc(OCc2ccccc2)cc1)C(=O)O [Compound 23, Boc-L-Tyr(Bzl)] | 190 µM | > 72% | – | – | – | – | 9 µM | competitively | 0.89 µM | competitively | 127 | time-dependent change in C-EH inhibition, human sEH (C-EH in human sEH): no time-dependent change; species preference of N-phos inhibition (human versus mouse), in words (N-phos in human sEH): more potent on inhibiting the human N-phos than the mouse enzyme; preference for human N-phos over mouse N-phos (N-phos in human sEH; ratio of KI values): 10 fold
CC(=O)N[C@@H](CSC/C=C(\C)CC/C=C(\C)CCC=C(C)C)C(=O)O [AFC, N-Acetyl-S-farnesyl-L-cysteine, reference compound] | > 100 µM | – | – | – | – | 48 µM | 33 µM | competitively | 1.1 µM | competitively | > 29 | –

Continued, in another order:

IC50 (C-EH in human sEH) | inhibition of human N-phos (N-phos in human sEH) | inhibition of mouse N-phos (N-phos in mouse sEH) | inhibition of mouse N-phos, in words (N-phos in mouse sEH) | inhibition of human N-phos, in words (N-phos in human sEH) | IC50 (C-EH in mouse sEH) | Ki (N-phos in mouse sEH) | inhibition mechanism, mouse N-phos (N-phos in mouse sEH) | Ki (N-phos in human sEH) | inhibition mechanism, human N-phos (N-phos in human sEH) | SMILES | selectivity index (N-phos over C-EH) in human sEH (N-phos in human sEH) | other results
> 200 µM | > 72% | – | – | – | – | – | – | – | – | COc1ccc(C[C@@H](NC(=O)OCC2c3ccccc3-c3ccccc32)C(=O)O)cc1 [Compound 72, Fmoc-D-Tyr(Me)] | > 31 | time-dependent change in C-EH inhibition, human sEH (C-EH in human sEH): no time-dependent change
– | – | > 75% | – | – | – | – | – | – | – | O=C(N[C@@H](Cc1ccccc1Cl)C(=O)O)OCC1c2ccccc2-c2ccccc21 [Compound 73, Fmoc-L-Phe(2-Cl)] | – | species preference of N-phos inhibition (mouse versus human), in words (N-phos in mouse sEH): more potent on inhibiting the mouse N-phos than the human enzyme
– | – | > 75% | inhibitory | inhibitory | ~200 µM | – | – | – | – | O=C(N[C@@H](Cc1c[nH]c2ccccc12)C(=O)O)OCC1c2ccccc2-c2ccccc21 [Compound 78, Fmoc-L-Trp] | – | selectivity index (N-phos over C-EH) in mouse sEH (N-phos in mouse sEH): ~ 50; time-dependent change in C-EH inhibition, mouse sEH (C-EH in mouse sEH): did not display any time-dependent change
– | – | > 75% | – | – | 85 µM | 1.1 µM | competitively | 26 µM | competitively | N#Cc1ccc(C[C@H](NC(=O)OCC2c3ccccc3-c3ccccc32)C(=O)O)cc1 [Compound 67, Fmoc-L-Phe(4-CN)] | – | selectivity index (N-phos over C-EH) in mouse sEH (N-phos in mouse sEH): 37; species preference of N-phos inhibition (mouse versus human), in words (N-phos in mouse sEH): more potent on inhibiting the mouse N-phos than the human enzyme; preference for mouse N-phos over human N-phos (N-phos in mouse sEH; ratio of KI values): 24 fold; time-dependent change in C-EH inhibition, mouse sEH (C-EH in mouse sEH): did not display any time-dependent change
– | > 72% | > 75% | inhibitory | inhibitory | – | – | – | – | – | CC(C)(C)OC(=O)n1cc(C[C@H](NC(=O)OCC2c3ccccc3-c3ccccc32)C(=O)O)c2ccccc21 [Compound 95, Fmoc-L-Trp(Boc)] | – | –
